In brackets after ≈: the same amount, converted by molar mass.
Experiments:
[1] = Solubility in phosphate buffered saline; format: physicochemical; conditions: pH 7.4
Method: To a sample of the material of known mass were added known volumes of phosphate buffered saline until complete dissolution is observed. Suspensions were centrifuged for 5 min at 10000 rpm. […] Upon complete dissolution, the solution is diluted until the final concentration is 0.5 mg/mL to ensure that the material remains soluble over the entire range of concentrations.

S. aureus ATCC 13709 = test: In vitro antibacterial susceptibility (MIC, broth microdilution); format: cell-based; conditions: for MIC against S. aureus ATCC 13709, CAMHB: cation-adjusted Mueller-Hinton broth, 37° C., 18 h; for Antibacterial activity compared with oritavancin 5: deduced from the MIC data of Table 2
Method: Susceptibility of S. aureus strain ATCC13709 to oritavancin (5) and synthesized compounds was determined following the guidelines set by the Clinical and Laboratory Standards Institute (formerly the National Committee for Clinical Laboratory Standards) (M26-A). Compounds were serially diluted two-fold in either DMSO (Oritavancin 5) or in PBS and transferred to cation-adjusted Mueller Hinton broth (CAMHB; Becton Dickinson). 50 μL of compounds diluted in CAMHB was mixed with 100 μL of bacteria diluted in CAMHB in 96-well microtiter plates. The final number of micro-organisms in the assay was 5×10^5 c.f.u. per mL and the final concentration of DMSO in the assay, if present, was 1.25%. All solutions may contain 0.002% Tween as indicated. Assays were set up in duplicate and incubated at 37° C. for 18 h. The concentration of compound that inhibited visible growth was reported as the minimum inhibitory concentration (MIC).

[2] = 10 mM phosphate buffered saline (0.138 M NaCl, 2.7 mM KCl)

Compound | Solubility (mg/mL) PBS [1] | Solubility (mg/mL) PBS [1, 2] | MIC against S. aureus ATCC 13709, CAMHB + 0.002% tween (S. aureus ATCC 13709) | MIC against S. aureus ATCC 13709, CAMHB + 50% human serum (S. aureus ATCC 13709) | MIC against S. aureus ATCC 13709, CAMHB + 50% mouse serum (S. aureus ATCC 13709) | MIC against S. aureus ATCC 13709, CAMHB + 50% rat serum (S. aureus ATCC 13709) | MIC against S. aureus ATCC 13709, CAMHB (S. aureus ATCC 13709) | Antibacterial activity compared with oritavancin 5 (S. aureus ATCC 13709)
CC(=O)[O-].CNC(CC(C)C)C(=O)NC1C(=O)NC(CC(N)=O)C(=O)NC2C(=O)NC3C(=O)NC(C(=O)NC(C(=O)SCC[N+](C)(C)C)c4cc(O)cc(O)c4-c4cc3ccc4O)C(OC3CC(C)(N)C(O)C(C)O3)c3ccc(c(Cl)c3)Oc3cc2cc(c3OC2OC(CO)C(O)C(O)C2OC2CC(C)(NCc3ccc(-c4ccc(Cl)cc4)cc3)C(O)C(C)O2)Oc2ccc(cc2Cl)C1O (centres unmarked) [98 (acetate salt)] | 20 mg/mL |  |  |  |  |  |  | 
CC(C)CC(C(=O)NC1C(=O)NC(CC(N)=O)C(=O)NC2C(=O)NC3C(=O)NC(C(=O)NC(C(=O)O)c4cc(O)cc(O)c4-c4cc3ccc4O)C(OC3CC(C)(N)C(O)C(C)O3)c3ccc(c(Cl)c3)Oc3cc2cc(c3OC2OC(CO)C(O)C(O)C2OC2CC(C)(NCc3ccc(-c4ccc(Cl)cc4)cc3)C(O)C(C)O2)Oc2ccc(cc2Cl)C1O)N(C)C(=O)OCOC(=O)CCC(=O)O (centres unmarked) [Compound 7] |  | <0.5 mg/mL | 0.125 µg/mL | 0.5 µg/mL | 0.5 µg/mL | 0.25 µg/mL | 2 µg/mL (≈ 1.02 µM) | within an order of magnitude of that of oritavancin 5
CC(C)CC(C(=O)NC1C(=O)NC(CC(N)=O)C(=O)NC2C(=O)NC3C(=O)NC(C(=O)NC(C(=O)O)c4cc(O)cc(O)c4-c4cc3ccc4O)C(OC3CC(C)(N)C(O)C(C)O3)c3ccc(c(Cl)c3)Oc3cc2cc(c3OC2OC(CO)C(O)C(O)C2OC2CC(C)(NCc3ccc(-c4ccc(Cl)cc4)cc3)C(O)C(C)O2)Oc2ccc(cc2Cl)C1O)N(C)C(=O)CCC(=O)N(CC(=O)O)CC(=O)O (centres unmarked) [Compound 13] |  | 5.5 mg/mL (≈ 2740 µM) | 2 µg/mL | 64 µg/mL | 64 µg/mL | 32 µg/mL | 4 µg/mL (≈ 1.99 µM) | weaker activities
CC(C)CC(C(=O)NC1C(=O)NC(CC(N)=O)C(=O)NC2C(=O)NC3C(=O)NC(C(=O)NC(C(=O)O)c4cc(O)cc(O)c4-c4cc3ccc4O)C(OC3CC(C)(N)C(O)C(C)O3)c3ccc(c(Cl)c3)Oc3cc2cc(c3OC2OC(CO)C(O)C(O)C2OC2CC(C)(NCc3ccc(-c4ccc(Cl)cc4)cc3)C(O)C(C)O2)Oc2ccc(cc2Cl)C1O)N(C)C(=O)OCOC(=O)CCC(=O)N(CC(=O)O)CC(=O)O (centres unmarked) [Compound 20] |  | 5.5 mg/mL (≈ 2640 µM) | 4 µg/mL | 16 µg/mL | 16 µg/mL | 2 µg/mL | 4 µg/mL (≈ 1.92 µM) | weaker activities
CNC(CC(C)C)C(=O)NC1C(=O)NC(CC(N)=O)C(=O)NC2C(=O)NC3C(=O)NC(C(=O)NC(C(=O)NCCCNCCCCNCCCN)c4cc(O)cc(O)c4-c4cc3ccc4O)C(OC3CC(C)(N)C(O)C(C)O3)c3ccc(c(Cl)c3)Oc3cc2cc(c3OC2OC(CO)C(O)C(O)C2OC2CC(C)(NCc3ccc(-c4ccc(Cl)cc4)cc3)C(O)C(C)O2)Oc2ccc(cc2Cl)C1O (centres unmarked) [Compound 24] |  | ≧100 mg/mL | 0.5 µg/mL | 1 µg/mL | 0.06 µg/mL | 0.06 µg/mL | 1 µg/mL (≈ 0.506 µM) | within an order of magnitude of that of oritavancin 5
CNC(CC(C)C)C(=O)NC1C(=O)NC(CC(N)=O)C(=O)NC2C(=O)NC3C(=O)NC(C(=O)NC(C(=O)OCC(=O)NCCCNCCCCNCCCN)c4cc(O)cc(O)c4-c4cc3ccc4O)C(OC3CC(C)(N)C(O)C(C)O3)c3ccc(c(Cl)c3)Oc3cc2cc(c3OC2OC(CO)C(O)C(O)C2OC2CC(C)(NCc3ccc(-c4ccc(Cl)cc4)cc3)C(O)C(C)O2)Oc2ccc(cc2Cl)C1O (centres unmarked) [Compound 28] |  | ≧100 mg/mL | 0.125 µg/mL | 0.25 µg/mL | 0.25 µg/mL | 0.063 µg/mL | 2 µg/mL (≈ 0.983 µM) | within an order of magnitude of that of oritavancin 5
CC(C)CC(C(=O)NC1C(=O)NC(CC(N)=O)C(=O)NC2C(=O)NC3C(=O)NC(C(=O)NC(C(=O)O)c4cc(O)cc(O)c4-c4cc3ccc4O)C(OC3CC(C)(N)C(O)C(C)O3)c3ccc(c(Cl)c3)Oc3cc2cc(c3OC2OC(CO)C(O)C(O)C2OC2CC(C)(NCc3ccc(-c4ccc(Cl)cc4)cc3)C(O)C(C)O2)Oc2ccc(cc2Cl)C1O)N(C)C(=O)CNCCCNCCCCNCCCN (centres unmarked) [Compound 36] |  |  | 0.06 µg/mL | 0.125 µg/mL | 0.25 µg/mL | 0.125 µg/mL | 1 µg/mL (≈ 0.491 µM) | 
CC(C)CC(C(=O)NC1C(=O)NC(CC(N)=O)C(=O)NC2C(=O)NC3C(=O)NC(C(=O)NC(C(=O)O)c4cc(O)cc(O)c4-c4cc3ccc4O)C(OC3CC(C)(N)C(O)C(C)O3)c3ccc(c(Cl)c3)Oc3cc2cc(c3OC2OC(CO)C(O)C(O)C2OC2CC(C)(NCc3ccc(-c4ccc(Cl)cc4)cc3)C(O)C(C)O2)Oc2ccc(cc2Cl)C1O)N(C)C(=O)OCOC(=O)CNCCCNCCCCNCCCN (centres unmarked) [Compound 38] |  | <0.5 mg/mL | 0.25 µg/mL | 1 µg/mL | 1 µg/mL | 0.5 µg/mL | 2 µg/mL (≈ 0.948 µM) | within an order of magnitude of that of oritavancin 5
CC(C)CC(C(=O)NC1C(=O)NC(CC(N)=O)C(=O)NC2C(=O)NC3C(=O)NC(C(=O)NC(C(=O)O)c4cc(O)cc(O)c4-c4cc3ccc4O)C(OC3CC(C)(N)C(O)C(C)O3)c3ccc(c(Cl)c3)Oc3cc2cc(c3OC2OC(CO)C(O)C(O)C2OC2CC(C)(NCc3ccc(-c4ccc(Cl)cc4)cc3)C(O)C(C)O2)Oc2ccc(cc2Cl)C1O)N(C)C(=O)OCOC(=O)C(N)CCCCN (centres unmarked) [Compound 44] |  | <0.5 mg/mL | 0.5 µg/mL | 4 µg/mL | 0.25 µg/mL | 0.5 µg/mL | 4 µg/mL (≈ 2 µM) | within an order of magnitude of that of oritavancin 5
CC(C)CC(C(=O)NC1C(=O)NC(CC(N)=O)C(=O)NC2C(=O)NC3C(=O)NC(C(=O)NC(C(=O)O)c4cc(O)cc(O)c4-c4cc3ccc4O)C(OC3CC(C)(NC(=O)OCOC(=O)C(N)CCCCN)C(O)C(C)O3)c3ccc(c(Cl)c3)Oc3cc2cc(c3OC2OC(CO)C(O)C(O)C2OC2CC(C)(NCc3ccc(-c4ccc(Cl)cc4)cc3)C(O)C(C)O2)Oc2ccc(cc2Cl)C1O)N(C)C(=O)OCOC(=O)C(N)CCCCN (centres unmarked) [Compound 46] |  | <0.5 mg/mL | 0.25 µg/mL | 0.5 µg/mL | 1 µg/mL | 0.25 µg/mL | 1 µg/mL (≈ 0.455 µM) | within an order of magnitude of that of oritavancin 5
CNC(CC(C)C)C(=O)NC1C(=O)NC(CC(N)=O)C(=O)NC2C(=O)NC3C(=O)NC(C(=O)NC(C(=O)SCC[N+](C)(C)C)c4cc(O)cc(O)c4-c4cc3ccc4O)C(OC3CC(C)(N)C(O)C(C)O3)c3ccc(c(Cl)c3)Oc3cc2cc(c3OC2OC(CO)C(O)C(O)C2OC2CC(C)(NCc3ccc(-c4ccc(Cl)cc4)cc3)C(O)C(C)O2)Oc2ccc(cc2Cl)C1O (centres unmarked) [Compound 98] |  |  | 0.25 µg/mL | 0.25 µg/mL | 2 µg/mL | 0.125 µg/mL | 1 µg/mL | within an order of magnitude of that of oritavancin 5
